How the values were obtained:
[1] = Tissue levels after 5 day repeated dosing in rat; type: in vivo; conditions: 20 mg/kg twice daily for 5 days, 6 hours after last dose
Procedure: The decreased tissue accumulation of compound 3 vis-a-vis 1 was confirmed in a multi-dose experiment. Rats received 20 mg/kg of either compound twice daily for 5 days. Animal were sacrificed 6 hours after the last dose and levels of compounds in kidneys, liver and lung were determined. FIG. 14 depicts the measured tissue levels. Approximately 100-fold, 60-fold, and 10-fold less compound 3 accumulated in kidney, liver and lung respectively, as compared to compound 1.

PAM1723 = conditions: Table 3
Procedure: Stability in rat and human serum was also evaluated using a bioassay. 320 μg/ml of the test compound was treated with 50% serum for 4 hours.
Bioassays as described in Example 62 and Example 65 were used to evaluate the stability of various compounds in serum and rabbit kidney homogenates.

[2] = system: Burkholderia, Proteus, Morganella, Providencia and Serratia; assay: Potentiation of tigecycline against other gram-negative clinical isolates; type: cell-based; conditions: in words
Procedure: To further characterize the clinical potential of tigecycline/EPI combinations, the microbiological activity of tigecycline in combination with compound 21 was investigated using clinical isolates of P. aeruginosa and other gram-negative bacteria. In several experiments, described below, the impact of a fixed concentration of compound 21 (2.5 μg/ml) on susceptibility to tigecycline was determined.
Strains with decreased susceptibility to tigecycline were also present among representatives of Burkholderia, Proteus, Morganella, Providencia and Serratia. […] While not being bound by any particular theory, it is probable that the lack of potentiation by compound 21 is due to limited uptake of this particular EPI across the outer membrane of these bacteria, rather than the absence of efflux pumps.

[3] = system: PAM 1032, nalB, MexAB-OprM over-expressed; assay: microbe, parasite or virus in culture; type: cell-based, P. aeruginosa; set-up: Tigecycline MIC in the presence of Compound 21: unit not given here; conditions: PAM 1032
Procedure: The ability of compound 21 to increase susceptibility to tigecycline was also assessed. The tigecycline potentiating activity of compound 21 was assessed by the checkerboard assay (Antimicrobial Combinations, Antibiotics in Laboratory Medicine, ed. Victor Lorian, M.D., Fourth edition, 1996, pp 333-338, which is incorporated herein by reference in its entirety) using a broth micro-dilution method performed as recommended by the CSLI (Clinical and Laboratory Standards Institute, formerly NCCLS) guidelines (National Committee for Clinical Laboratory Standards 2003. Methods for Dilution Antimicrobial Susceptibility Tests for Bacteria That Grow Aerobically—Sixth Edition; Approved Standard. NCCLS Document M7-A6, Vol 20 No. 2). In this assay, multiple dilutions of the two drugs, compound 21 and tigecycline, were tested alone and in combination, at concentrations equal to, above and below their respective minimal inhibitory concentrations (MICs). […] The stock solution was further diluted in Mueller Hinton Broth (MHB). Stock solutions were stored at −80° C.
The checkerboard assay was performed in microtiter plates. Tigecycline was diluted in the x axis, each column containing a single concentration of tigecycline. Compound 21 was diluted in the y axis, each row containing an equal concentration of the EPI. […] The assay was performed in MHB with a final bacterial inoculum of 5×10^5 CFU/ml (from an early-log phase culture). The microtiter plates were incubated for 20 hours at 35° C. and then read using a microtiter plate reader (Molecular Devices) at 650 nm, as well as by visual observation using a microtiter plate-reading mirror.
P. aeruginosa strain PAM 1032 was grown in Mueller-Hinton Broth (MHB) at 35° C. under constant aeration. After 20 hours, the inoculum was sub-cultured into fresh MHB and allowed to regrow at 35° C., under constant aeration, for 4 hours. The inoculum was adjusted to ca. 4×10^7 CFU/ml by correlation of absorbance at 600 nm with predetermined plate counts. The inoculum was then diluted 2-fold in 14% hog-gastric mucin (Sigma, St. Louis, Mo.) for a final inoculum concentration of 2×10^7 CFU/ml. […] At 0 and 2 hours following infection, tigecycline was administered by the subcutaneous route and compound 21 was administered by the intraperitoneal route.

| Structure (SMILES) | less compound 3 accumulated as compared to compound 1 ([1]; rat kidney) | less compound 3 accumulated as compared to compound 1 ([1]; rat liver) | less compound 3 accumulated as compared to compound 1 ([1]; rat lung) | EPI MPC8 after 4 hours at 37° C., Frosen Human serum (PAM1723; 50% human serum) | EPI MPC8 after 4 hours at 37° C., Frozen Rat serum (PAM1723; 50% rat serum) | EPI MPC8 after 4 hours at 37° C., Saline (PAM1723; saline) | effect on susceptibility to tigecycline [2] | Tigecycline MIC in the presence of Compound 21 ([3]; Compound 21 0.625 μg/ml) | Tigecycline MIC in the presence of Compound 21 ([3]; Compound 21 1.25 μg/ml) | Tigecycline MIC in the presence of Compound 21 ([3]; Compound 21 5 μg/ml) | Tigecycline MIC in the presence of Compound 21 ([3]; Compound 21 10 μg/ml) | Tigecycline MIC in the presence of Compound 21 ([3]; Compound 21 20 μg/ml) | Tigecycline MIC in the presence of Compound 21 ([3]; Compound 21 40 μg/ml) | Tigecycline MIC in the presence of Compound 21 ([3]; Compound 21 […]) |
| --- | --- | --- | --- | --- | --- | --- | --- | --- | --- | --- | --- | --- | --- | --- |
| NCCC[C@H](N)C(=O)N[C@H](CCc1ccccc1)C(=O)Nc1cnc2ccccc2c1 [Compound 3, 2-(S),5-Diamino-pentanoic acid [3-phenyl-1-(R)-(quinolin-3-ylcarbamoyl)-propyl]-amide] | Approximately 100 fold | ~60 fold | ~10 fold | 5 | 5 | 5 | – | – | – | – | – | – | – | – |
| NCCC[C@H](N)C(=O)N[C@H](Cc1ccc(C(F)(F)F)cc1)C(=O)Nc1cnc2ccccc2c1 [Compound 21, 2-(S),5-Diamino-pentanoic acid [1-(R)-(quinolin-3-ylcarbamoyl)-2-(4-trifluoromethyl-phenyl)-ethyl]amide] | – | – | – | – | – | – | did not decreased susceptibility to tigecycline | 4 | 2 | 0.5 | 0.5 | 0.5 | 0.5 | 0.5 |

From patent US7879795B2, “Enhancement of tigecycline potency using efflux pump inhibitors” (Mpex Pharmaceuticals, Inc., priority 2004, dated 2011)
